What was measured:
Assay type in all cases: cell-based
algae = assay: Surface protection, algal resistance of coating (BBA MOAT 33); details: after leaching with running water for 72 hours
Procedure: (§1) Testing was performed according to the BS3900 G6 and BBA MOAT 33 methods for evaluation versus fungi and algae, respectively. The methods involve painting a substrate panel with the coating and leaching under running water for 72 hours. The substrates are incubated for 56 days after being inoculated with fungi or algae. Performance is judged by comparing with suitable control samples i.e without biocide, a positive control and for fungi with substrate panels that have not been leached.
(§2) Performance rating of painted test substrates is as follows and a score of 0, 1 and 2 is considered as a pass • 0=no growth • 1=trace of growth • 2=growth on 1-10% of test face • 3=growth on 10-30% of test face • 4=growth on 30-70% of test face • 5=growth on 70-100% of test face. Surface Protection using CuHDO

fungi = assay: Surface protection, fungal resistance of coating (BS3900 G6); design: key: 0=no growth; 1=trace of growth; 2=growth on 1-10% of test face; 3=growth on 10-30% of test face; 4=growth on 30-70% of test face; 5=growth on 70-100% of test face
Procedure: as §1, with “The substrates are incubated for 56 days after being inoculated with fungi or algae.” left out
as §2

Bacterial Challenges = assay: In can preservation challenge test (IBRG draft method), bacterial challenges; details: 1000 ppm, acrylic ester and acrylonitrile polymer dispersion
Procedure: (§3) Tests were performed according to the IBRG draft method (5.2, June 2001). This briefly entails the substrate being dosed with the biocide and allowed to equilibrate. Samples are inoculated once per week for 4 weeks and checked for recovery of organisms at 1, 3 and 7 days after inoculation.
(§4) Results to show efficacy in a polymer based on an acrylic ester and acrylonitrile polymer dispersion using: • 1000 ppm CuHDO • 1000 ppm in-situ generated CuHDO (by blending within the matrix or medium, 315 ppm of basic copper carbonate containing 57.5% copper content with 3492 ppm of a 30% water soluble solution of potassium salt of N′-hydroxy-N-cyclohexyldiazenium oxide (KHDO))
(§5) Using the following performance rating: • P=Pass (0-100 colonies) • F=Fail (101->1000 colonies)

Fungal Challenges = assay: In can preservation challenge test (IBRG draft method), fungal challenges; details: 1000 ppm, acrylic ester and acrylonitrile polymer dispersion
Procedure: as §3, §4, §5

[1] = system: Bacterial and Fungal Challenges; assay: In can preservation challenge test (IBRG draft method), overall efficacy; details: 1000 ppm, acrylic ester and acrylonitrile polymer dispersion
Procedure: as §3, §4, §5

[2] = 0.15% by weight, after leaching with running water for 72 hours
[3] = 0.15% by weight, coating as applied
[4] = 0.2% by weight, after leaching with running water for 72 hours
[5] = 0.2% by weight, coating as applied
[6] = 1.5% by weight, after leaching with running water for 72 hours
[7] = 1.5% by weight, coating as applied
[8] = 0.5% by weight, after leaching with running water for 72 hours
[9] = 0.5% by weight, coating as applied

[Cu+2].[O-]/N=[N+](\[O-])C1CCCCC1.[O-]/N=[N+](\[O-])C1CCCCC1 [CuHDO, copper salt of N′-hydroxy-N-cyclohexyl-diazenium oxide]
3 (3=growth on 10-30% of test face): FUNGAL GROWTH ASSESSMENT Plaster Substrate 56 days (fungi; [4]) | FUNGAL GROWTH ASSESSMENT Wood Substrate 56 days (fungi; [4])
1.2: ALGAL GROWTH ASSESSMENT 56 days (algae; 0.2% by weight)
0.1: ALGAL GROWTH ASSESSMENT 28 days (algae; 0.2% by weight)
1/1: ALGAL GROWTH ASSESSMENT 42 days (algae; 0.15% by weight)
P (P=Pass (0-100 colonies)): Bacterial Challenges (Bacterial Challenges; pH 5) | Bacterial Challenges (Bacterial Challenges; pH 7) | Bacterial Challenges (Bacterial Challenges; pH 9) | Fungal Challenges (Fungal Challenges; pH 7) | Fungal Challenges (Fungal Challenges; pH 9) | Overall Efficacy ([1]; pH 7) | Overall Efficacy ([1]; pH 9)
2/2: ALGAL GROWTH ASSESSMENT 28 days (algae; 0.15% by weight)
2 (2=growth on 1-10% of test face): FUNGAL GROWTH ASSESSMENT Plaster Substrate 56 days (fungi; [2]) | FUNGAL GROWTH ASSESSMENT Wood Substrate 56 days (fungi; [2]) | FUNGAL GROWTH ASSESSMENT Plaster Substrate 28 days (fungi; [4]) | FUNGAL GROWTH ASSESSMENT Wood Substrate 28 days (fungi; [4])
0/0: ALGAL GROWTH ASSESSMENT 28 days (algae; 1.5% by weight) | ALGAL GROWTH ASSESSMENT 42 days (algae; 1.5% by weight) | ALGAL GROWTH ASSESSMENT 56 days (algae; 1.5% by weight)
F^2 (F=Fail (101->1000 colonies)): Fungal Challenges (Fungal Challenges; pH 5) | Overall Efficacy ([1]; pH 5)
0/1: ALGAL GROWTH ASSESSMENT 56 days (algae; 0.15% by weight)
1: FUNGAL GROWTH ASSESSMENT Plaster Substrate 28 days (fungi; [2]) | FUNGAL GROWTH ASSESSMENT Plaster Substrate 42 days (fungi; [2]) | FUNGAL GROWTH ASSESSMENT Wood Substrate 28 days (fungi; [2]) | FUNGAL GROWTH ASSESSMENT Wood Substrate 42 days (fungi; [2]) | FUNGAL GROWTH ASSESSMENT Plaster Substrate 28 days (fungi; [3]) | FUNGAL GROWTH ASSESSMENT Plaster Substrate 42 days (fungi; [3]) | FUNGAL GROWTH ASSESSMENT Plaster Substrate 56 days (fungi; [3]) | FUNGAL GROWTH ASSESSMENT Wood Substrate 28 days (fungi; [3]) | FUNGAL GROWTH ASSESSMENT Wood Substrate 42 days (fungi; [3]) | FUNGAL GROWTH ASSESSMENT Wood Substrate 56 days (fungi; [3]) | FUNGAL GROWTH ASSESSMENT Plaster Substrate 28 days (fungi; [5]) | FUNGAL GROWTH ASSESSMENT Plaster Substrate 56 days (fungi; [5]) | FUNGAL GROWTH ASSESSMENT Wood Substrate 28 days (fungi; [5]) | FUNGAL GROWTH ASSESSMENT Wood Substrate 56 days (fungi; [5]) | FUNGAL GROWTH ASSESSMENT Plaster Substrate 28 days (fungi; [6]) | FUNGAL GROWTH ASSESSMENT Plaster Substrate 42 days (fungi; [6]) | FUNGAL GROWTH ASSESSMENT Plaster Substrate 56 days (fungi; [6]) | FUNGAL GROWTH ASSESSMENT Wood Substrate 28 days (fungi; [6]) | FUNGAL GROWTH ASSESSMENT Wood Substrate 42 days (fungi; [6]) | FUNGAL GROWTH ASSESSMENT Wood Substrate 56 days (fungi; [6]) | FUNGAL GROWTH ASSESSMENT Plaster Substrate 28 days (fungi; [7]) | FUNGAL GROWTH ASSESSMENT Plaster Substrate 42 days (fungi; [7]) | FUNGAL GROWTH ASSESSMENT Plaster Substrate 56 days (fungi; [7]) | FUNGAL GROWTH ASSESSMENT Wood Substrate 28 days (fungi; [7]) | FUNGAL GROWTH ASSESSMENT Wood Substrate 42 days (fungi; [7]) | FUNGAL GROWTH ASSESSMENT Wood Substrate 56 days (fungi; [7])

CCCCNC(=O)OCC#CI [IPBC, reference compound]
1: FUNGAL GROWTH ASSESSMENT Plaster Substrate 28 days (fungi; [8]) | FUNGAL GROWTH ASSESSMENT Plaster Substrate 56 days (fungi; [8]) | FUNGAL GROWTH ASSESSMENT Wood Substrate 28 days (fungi; [8]) | FUNGAL GROWTH ASSESSMENT Wood Substrate 56 days (fungi; [8]) | FUNGAL GROWTH ASSESSMENT Plaster Substrate 28 days (fungi; [9]) | FUNGAL GROWTH ASSESSMENT Plaster Substrate 56 days (fungi; [9]) | FUNGAL GROWTH ASSESSMENT Wood Substrate 28 days (fungi; [9]) | FUNGAL GROWTH ASSESSMENT Wood Substrate 56 days (fungi; [9])

CCNc1nc(NC(C)(C)C)nc(SC)n1 [Terbutryn, reference compound]
0.0: ALGAL GROWTH ASSESSMENT 28 days (algae; 0.5% by weight) | ALGAL GROWTH ASSESSMENT 56 days (algae; 0.5% by weight)
